Like-named read-outs stand apart in the source and are kept apart here.
Biological target: human NAMPT (Homo sapiens, UniProt P43490)
Assay: Human recombinant enzyme assay (NMN fluorescence biochemical assay, activation of NAMPT)
Procedure, shortened: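 Activation of recombinant human NAMPT (6 nM) with 2.5 mM ATP, 20 μM PRPP and 150 μM nicotinamide in 50 mM HEPES pH 7.2, 1 mM DTT, 1 mM CHAPS, 50 mM NaCl, 100 mM MgCl2; 60 min, ambient temperature. NMN formed was derivatized with acetophenone/KOH/formic acid, fluorescence read at 355/460 nm after 40 min.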

[1] = Table A, human recombinant NAMPT, NMN formation, 60 min
[2] = Table A, human recombinant NAMPT, NMN formation, 60 min, read-out: EC50 Human

Chain of human NAMPT (P43490 whole entry): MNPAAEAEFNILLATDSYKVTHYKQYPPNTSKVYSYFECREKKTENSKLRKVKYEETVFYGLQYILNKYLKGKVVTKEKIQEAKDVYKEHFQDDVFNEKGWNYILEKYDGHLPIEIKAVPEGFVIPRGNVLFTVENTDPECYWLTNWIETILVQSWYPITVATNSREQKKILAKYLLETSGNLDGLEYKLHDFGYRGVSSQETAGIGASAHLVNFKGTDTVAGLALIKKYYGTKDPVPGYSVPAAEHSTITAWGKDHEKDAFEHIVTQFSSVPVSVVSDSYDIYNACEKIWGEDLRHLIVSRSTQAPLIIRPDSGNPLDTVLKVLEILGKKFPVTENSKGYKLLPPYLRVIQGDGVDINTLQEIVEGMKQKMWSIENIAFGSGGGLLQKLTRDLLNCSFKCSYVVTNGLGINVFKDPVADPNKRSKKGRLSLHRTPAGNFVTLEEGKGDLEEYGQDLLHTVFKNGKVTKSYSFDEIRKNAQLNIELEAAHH

SMILES | AC1.4 Human [1] | EC50 [2] | EC50
COc1ccc(CNC(=O)NC2CC3(C2)CC(C(=O)N2CCN(C(C)C)CC2)C3)cc1 (centres unmarked) [Compound 122, 1-(6-(4-isopropylpiperazine-1-carbonyl)spiro[3.3]heptan-2-yl)-3-(4-methoxybenzyl)urea] | 5.9 µM | 47.6 µM | –
COc1ccc(CNC(=O)NC2CC3(C2)CC(C(=O)N2CCN(Cc4cnn(C)c4)CC2)C3)cc1 (centres unmarked) [Compound 123, 1-(4-methoxybenzyl)-3-(6-(4-((1-methyl-1H-pyrazol-4-yl)methyl)piperazine-1-carbonyl)spiro[3.3]heptan-2-yl)urea] | 2.8 µM | 51.5 µM | –
COc1ccc(CNC(=O)NC2CC3(C2)CC(C(=O)N2CCN(Cc4ccncc4)CC2)C3)cc1 (centres unmarked) [Compound 124, 1-(4-methoxybenzyl)-3-(6-(4-(pyridin-4-ylmethyl)piperazine-1-carbonyl)spiro[3.3]heptan-2-yl)urea] | 1.3 µM | 24.9 µM | –
COc1ccc(CNC(=O)NC2CC3(C2)CC(C(=O)N2CCN(Cc4ccccn4)CC2)C3)cc1 (centres unmarked) [Compound 125, 1-(4-methoxybenzyl)-3-(6-(4-(pyridin-2-ylmethyl)piperazine-1-carbonyl)spiro[3.3]heptan-2-yl)urea] | 7.9 µM | 51.2 µM | –
COc1ccc(CNC(=O)NC2CC3(CC(CN4CCCc5c(F)cc(F)cc54)C3)C2)cc1 (centres unmarked) [Compound 127, 1-(6-((5,7-difluoro-3,4-dihydroquinolin-1(2H)-yl)methyl)spiro[3.3]heptan-2-yl)-3-(4-methoxybenzyl)urea] | 1.4 µM | 33.1 µM | –
COc1ccc(CNC(=O)NC2CC3(CC(CN4CCc5ccccc54)C3)C2)cc1 (centres unmarked) [Compound 128, 1-(6-(indolin-1-ylmethyl)spiro[3.3]heptan-2-yl)-3-(4-methoxybenzyl)urea] | 0.6 µM | 20.8 µM | –
COc1ccc(CNC(=O)NC2CC3(CC(CN4Cc5ccccc5C4)C3)C2)cc1 (centres unmarked) [Compound 129, 1-(6-(isoindolin-2-ylmethyl)spiro[3.3]heptan-2-yl)-3-(4-methoxybenzyl)urea] | 7.3 µM | 30.2 µM | –
COc1ccc(CNC(=O)NC2CC3(C2)CN(S(=O)(=O)C2CC4CCC2C4)C3)cc1 (centres unmarked) [Compound 130, 1-(2-(bicyclo[2.2.1]heptan-2-ylsulfonyl)-2-azaspiro[3.3]heptan-6-yl)-3-(4-methoxybenzyl)urea] | 18.1 µM | 48 µM | –
COC(=O)C1CCC(S(=O)(=O)N2CC3(CC(NC(=O)NCc4ccc(OC)cc4)C3)C2)CC1 (centres unmarked) [Compound 131, methyl 4-((6-(3-(4-methoxybenzyl)ureido)-2-azaspiro[3.3]heptan-2-yl)sulfonyl)cyclohexane-1-carboxylate] | 17.6 µM | 48.5 µM | –
COc1ccc(CNC(=O)NC2CC3(C2)CN(C(=O)Nc2cccc(C#N)n2)C3)cc1 [Compound 132, N-(6-cyanopyridin-2-yl)-6-(3-(4-methoxybenzyl)ureido)-2-azaspiro[3.3]heptane-2-carboxamide] | 15.0 µM | – | 42.8 µM
COc1ccc(CNC(=O)NC2CC3(C2)CN(C(=O)Nc2cnc(C)nc2)C3)cc1 [Compound 133, 6-(3-(4-methoxybenzyl)ureido)-N-(2-methylpyrimidin-5-yl)-2-azaspiro[3.3]heptane-2-carboxamide] | 17.5 µM | 61.2 µM | –
COc1ccc(CNC(=O)NC2CC3(C2)CN(C(=O)CCc2ccccc2Cl)C3)cc1 [Compound 135, 1-(2-(3-(2-chlorophenyl)propanoyl)-2-azaspiro[3.3]heptan-6-yl)-3-(4-methoxybenzyl) urea] | 3.7 µM | – | 38.5 µM
COc1ccc(CNC(=O)NC2CC3(C2)CN(C(=O)C2CCCN(C(=O)OC(C)(C)C)C2)C3)cc1 (centres unmarked) [Compound 136, tert-butyl 3-(6-(3-(4-methoxybenzyl)ureido)-2-azaspiro[3.3]heptane-2-carbonyl)piperidine-1-carboxylate] | 9.8 µM | 57.7 µM | –
COc1ccc(CNC(=O)NC2CC3(C2)CN(C(=O)C2CCCc4ccccc42)C3)cc1 (centres unmarked) [Compound 137, 1-(4-methoxybenzyl)-3-(2-(1,2,3,4-tetrahydronaphthalene-1-carbonyl)-2-azaspiro[3.3]heptan-6-yl)urea] | 13.8 µM | 53.3 µM | –
COc1ccc(CNC(=O)NC2CC3(C2)CN(C(=O)c2ccncc2)C3)cc1 [Compound 139, 1-(2-isonicotinoyl-2-azaspiro[3.3]heptan-6-yl)-3-(4-methoxybenzyl)urea] | 16.4 µM | 44.9 µM | –
COc1ccc(CNC(=O)NC2CC3(C2)CN(C(=O)c2ccccc2)C3)cc1 [Compound 141, 1-(2-benzoyl-2-azaspiro[3.3]heptan-6-yl)-3-(4-methoxybenzyl)urea] | 4.7 µM | 49.4 µM | –
COc1ccc(CNC(=O)NC2CC3(C2)CN(C(=O)C(C)(C)c2ccccc2)C3)cc1 [Compound 142, 1-(4-methoxybenzyl)-3-(2-(2-methyl-2-phenylpropanoyl)-2-azaspiro[3.3]heptan-6-yl)urea] | 1.8 µM | 33.3 µM | –
COc1ccc(CNC(=O)NC2CC3(C2)CN(C(=O)C2(c4ccccc4)CC2)C3)cc1 [Compound 143, 1-(4-methoxybenzyl)-3-(2-(1-phenylcyclopropane-1-carbonyl)-2-azaspiro[3.3]heptan-6-yl)urea] | 8.0 µM | 45.6 µM | –
COc1ccc(CNC(=O)NC2CC3(C2)CN(C(=O)c2ccc(=O)n(C)c2)C3)cc1 [Compound 144, 1-(4-methoxybenzyl)-3-(2-(1-methyl-6-oxo-1,6-dihydropyridine-3-carbonyl)-2-azaspiro[3.3]heptan-6-yl)urea] | 16.0 µM | 54 µM | –
COc1ccc(CNC(=O)NC2CC3(C2)CN(C(=O)c2cccc(C)c2)C3)cc1 [Compound 146, 1-(4-methoxybenzyl)-3-(2-(3-methylbenzoyl)-2-azaspiro[3.3]heptan-6-yl)urea] | 4.1 µM | 38.7 µM | –
COc1ccc(CNC(=O)NC2CC3(C2)CN(C(=O)c2ccc(C(F)(F)F)cc2)C3)cc1 [Compound 147, 1-(4-methoxybenzyl)-3-(2-(4-(trifluoromethyl)benzoyl)-2-azaspiro[3.3]heptan-6-yl)urea] | 5.8 µM | 58.2 µM | –
COc1ccc(CNC(=O)NC2CC3(C2)CN(C(=O)c2ccccc2C)C3)cc1 [Compound 148, 1-(4-methoxybenzyl)-3-(2-(2-methylbenzoyl)-2-azaspiro[3.3]heptan-6-yl)urea] | 3.9 µM | 47.1 µM | –
COc1ccc(CNC(=O)NCCCCCCOc2ccccc2)cc1 [Compound 150, 1-(4-methoxybenzyl)-3-(6-phenoxyhexyl)urea] | 2.0 µM | 5.3 µM | –
CC(C)(C)OC(=O)N1CC[C@]2(C1)C[C@@H](NC(=O)NCc1ccc(Cl)cc1)C2 [Compound 151, tert-butyl (2r,4s)-2-(3-(4-chlorobenzyl)ureido)-6-azaspiro[3.4]octane-6-carboxylate] | 6.8 µM | 41.2 µM | –
CC(C)(C)OC(=O)N1CC[C@]2(C1)C[C@H](NC(=O)NCc1ccc(Cl)cc1)C2 [Compound 152, tert-butyl (2s,4r)-2-(3-(4-chlorobenzyl)ureido)-6-azaspiro[3.4]octane-6-carboxylate] | 7.9 µM | 38.3 µM | –
